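Grown in 96-well plates, cells were treated for 48 hours with each compound at five concentrations. Insufficient inhibition: endpoint recorded as highest concentration tested. Abbreviation: GI50, concentration required for 50% inhibition of growth.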 Calls of active or inactive are those of the source. Rule as the data show it: active = GI50 up to about 1.1 µM and inactive = higher.
Tests used:
Assay in all cases: DTP human tumour cell line panel, 48 h
RXF 393 = tested on: RXF 393
M14 = tested on: M14
DU-145 = tested on: DU-145
MCF7 = tested on: MCF7
HOP-92 = tested on: HOP-92
NCI-H226 = tested on: NCI-H226
SK-MEL-5 = tested on: SK-MEL-5
OVCAR-8 = tested on: OVCAR-8
SK-MEL-28 = tested on: SK-MEL-28
Hs-578T = tested on: Hs-578T
HL-60 = tested on: HL-60
A498 = tested on: A498
HCT-116 = tested on: HCT-116
A549 = tested on: A549
MDA-N = tested on: MDA-N
SN12C = tested on: SN12C
MOLT-4 = tested on: MOLT-4
HCC 2998 = tested on: HCC 2998
NCI-H23 = tested on: NCI-H23
NCI/ADR-RES = tested on: NCI/ADR-RES
OVCAR-5 = tested on: OVCAR-5
IGROV-1 = tested on: IGROV-1
OVCAR-3 = tested on: OVCAR-3
SF-268 = tested on: SF-268
SNB-19 = tested on: SNB-19
HT-29 = tested on: HT-29
CCRF-CEM = tested on: CCRF-CEM
UACC-257 = tested on: UACC-257
NCI-H460 = tested on: NCI-H460
UO-31 = tested on: UO-31
SW-620 = tested on: SW-620
SR = tested on: SR
CAKI-1 = tested on: CAKI-1
HCT-15 = tested on: HCT-15
LOX IMVI = tested on: LOX IMVI
MDA-MB-435 = tested on: MDA-MB-435
786-0 = tested on: 786-0
KM12 = tested on: KM12
SF-295 = tested on: SF-295
U-251 = tested on: U-251
COLO 205 = tested on: COLO 205
HOP-62 = tested on: HOP-62
UACC-62 = tested on: UACC-62
OVCAR-4 = tested on: OVCAR-4
RPMI-8226 = tested on: RPMI-8226
EKVX = tested on: EKVX
ACHN = tested on: ACHN
K562 = tested on: K562
PC-3 = tested on: PC-3
SK-MEL-2 = tested on: SK-MEL-2
T47D = tested on: T47D
MDA-MB-231 = tested on: MDA-MB-231
NCI-H522 = tested on: NCI-H522
Malme-3M = tested on: Malme-3M
SK-OV-3 = tested on: SK-OV-3
SF-539 = tested on: SF-539
TK-10 = tested on: TK-10
SNB-75 = tested on: SNB-75

Compound: CCOC(=O)c1c(-c2ccc(O)c(OC)c2)c(C#N)c(=S)n(C2OC(CO)C(O)C(O)C2O)c1-c1ccccc1 (centres undefined)
- GI50 (RXF 393): > 100 µM (inactive)
- GI50 (M14): > 100 µM (inactive)
- GI50 (DU-145): > 100 µM (inactive)
- GI50 (MCF7): > 100 µM (inactive)
- GI50 (HOP-92): 66.7 µM (inactive)
- GI50 (NCI-H226): 13 µM (inactive)
- GI50 (SK-MEL-5): > 100 µM (inactive)
- GI50 (OVCAR-8): > 100 µM (inactive)
- GI50 (SK-MEL-28): > 100 µM (inactive)
- GI50 (Hs-578T): > 100 µM (inactive)
- GI50 (HL-60): > 100 µM (inactive)
- GI50 (A498): > 100 µM (inactive)
- GI50 (HCT-116): > 100 µM (inactive)
- GI50 (A549): > 100 µM (inactive)
- GI50 (MDA-N): > 100 µM (inactive)
- GI50 (SN12C): > 100 µM (inactive)
- GI50 (MOLT-4): 54.3 µM (inactive)
- GI50 (HCC 2998): > 100 µM (inactive)
- GI50 (NCI-H23): > 100 µM (inactive)
- GI50 (NCI/ADR-RES): > 100 µM (inactive)
- GI50 (OVCAR-5): > 100 µM (inactive)
- GI50 (IGROV-1): > 100 µM (inactive)
- GI50 (OVCAR-3): > 100 µM (inactive)
- GI50 (SF-268): > 100 µM (inactive)
- GI50 (SNB-19): > 100 µM (inactive)
- GI50 (HT-29): > 100 µM (inactive)
- GI50 (CCRF-CEM): > 100 µM (inactive)
- GI50 (UACC-257): > 100 µM (inactive)
- GI50 (NCI-H460): > 100 µM (inactive)
- GI50 (UO-31): > 100 µM (inactive)
- GI50 (SW-620): > 100 µM (inactive)
- GI50 (SR): > 100 µM (inactive)
- GI50 (CAKI-1): > 100 µM (inactive)
- GI50 (HCT-15): > 100 µM
- GI50 (LOX IMVI): > 100 µM (inactive)
- GI50 (MDA-MB-435): > 100 µM (inactive)
- GI50 (786-0): > 100 µM (inactive)
- GI50 (KM12): > 100 µM (inactive)
- GI50 (SF-295): > 100 µM (inactive)
- GI50 (U-251): > 100 µM (inactive)
- GI50 (COLO 205): > 100 µM (inactive)
- GI50 (HOP-62): > 100 µM (inactive)
- GI50 (UACC-62): > 100 µM (inactive)
- GI50 (OVCAR-4): > 100 µM (inactive)
- GI50 (RPMI-8226): 72.3 µM (inactive)
- GI50 (EKVX): > 100 µM (inactive)
- GI50 (ACHN): > 100 µM (inactive)
- GI50 (K562): > 100 µM (inactive)
- GI50 (PC-3): > 100 µM (inactive)

Compound: OCCNC1=Nc2ccc(Cl)cc2C(=S)N2CSC[C@@H]12
- GI50 (RXF 393): > 100 µM (inactive)
- GI50 (M14): > 100 µM (inactive)
- GI50 (DU-145): > 100 µM (inactive)
- GI50 (MCF7): > 100 µM (inactive)
- GI50 (HOP-92): > 100 µM (inactive)
- GI50 (SK-MEL-5): > 100 µM (inactive)
- GI50 (OVCAR-8): > 100 µM (inactive)
- GI50 (SK-MEL-28): > 100 µM (inactive)
- GI50 (SK-MEL-2): > 100 µM (inactive)
- GI50 (A498): > 100 µM (inactive)
- GI50 (HCT-116): > 100 µM (inactive)
- GI50 (A549): > 100 µM (inactive)
- GI50 (SN12C): > 100 µM (inactive)
- GI50 (MOLT-4): > 100 µM (inactive)
- GI50 (HCC 2998): > 100 µM (inactive)
- GI50 (T47D): > 100 µM (inactive)
- GI50 (NCI-H23): > 100 µM (inactive)
- GI50 (NCI/ADR-RES): > 100 µM (inactive)
- GI50 (MDA-MB-231): > 100 µM (inactive)
- GI50 (OVCAR-5): > 100 µM (inactive)
- GI50 (OVCAR-3): > 100 µM (inactive)
- GI50 (SF-268): > 100 µM (inactive)
- GI50 (SNB-19): > 100 µM (inactive)
- GI50 (HT-29): > 100 µM (inactive)
- GI50 (NCI-H522): > 100 µM (inactive)
- GI50 (NCI-H460): > 100 µM (inactive)
- GI50 (UO-31): > 100 µM (inactive)
- GI50 (SW-620): > 100 µM (inactive)
- GI50 (SR): > 100 µM (inactive)
- GI50 (CAKI-1): > 100 µM (inactive)
- GI50 (HCT-15): > 100 µM
- GI50 (Malme-3M): > 100 µM (inactive)
- GI50 (SK-OV-3): > 100 µM (inactive)
- GI50 (MDA-MB-435): > 100 µM (inactive)
- GI50 (786-0): > 100 µM (inactive)
- GI50 (KM12): > 100 µM (inactive)
- GI50 (SF-295): > 100 µM (inactive)
- GI50 (SF-539): > 100 µM (inactive)
- GI50 (U-251): > 100 µM (inactive)
- GI50 (COLO 205): > 100 µM (inactive)
- GI50 (HOP-62): > 100 µM (inactive)
- GI50 (UACC-62): > 100 µM (inactive)
- GI50 (OVCAR-4): > 100 µM (inactive)
- GI50 (RPMI-8226): > 100 µM (inactive)
- GI50 (ACHN): > 100 µM (inactive)
- GI50 (K562): > 100 µM (inactive)
- GI50 (PC-3): > 100 µM (inactive)

Compound: C=CCNc1ccc(C)cc1
- GI50 (RXF 393): > 100 µM (inactive)
- GI50 (M14): > 100 µM (inactive)
- GI50 (DU-145): > 100 µM (inactive)
- GI50 (MCF7): > 100 µM (inactive)
- GI50 (HOP-92): > 100 µM (inactive)
- GI50 (NCI-H226): > 100 µM (inactive)
- GI50 (SK-MEL-5): > 100 µM (inactive)
- GI50 (OVCAR-8): > 100 µM (inactive)
- GI50 (SK-MEL-28): > 100 µM (inactive)
- GI50 (Hs-578T): > 100 µM (inactive)
- GI50 (A498): 3.82 µM (inactive)
- GI50 (HCT-116): > 100 µM (inactive)
- GI50 (A549): > 100 µM (inactive)
- GI50 (MDA-N): > 100 µM (inactive)
- GI50 (SN12C): > 100 µM (inactive)
- GI50 (MOLT-4): > 100 µM (inactive)
- GI50 (HCC 2998): > 100 µM (inactive)
- GI50 (T47D): > 100 µM (inactive)
- GI50 (NCI-H23): > 100 µM (inactive)
- GI50 (NCI/ADR-RES): > 100 µM (inactive)
- GI50 (MDA-MB-231): > 100 µM (inactive)
- GI50 (OVCAR-3): > 100 µM (inactive)
- GI50 (SF-268): > 100 µM (inactive)
- GI50 (SNB-19): > 100 µM (inactive)
- GI50 (HT-29): > 100 µM (inactive)
- GI50 (CCRF-CEM): > 100 µM (inactive)
- GI50 (UACC-257): > 100 µM (inactive)
- GI50 (NCI-H522): > 100 µM (inactive)
- GI50 (NCI-H460): > 100 µM (inactive)
- GI50 (UO-31): 35 µM (inactive)
- GI50 (SW-620): > 100 µM (inactive)
- GI50 (SR): > 100 µM (inactive)
- GI50 (HCT-15): > 100 µM
- GI50 (LOX IMVI): > 100 µM (inactive)
- GI50 (MDA-MB-435): > 100 µM (inactive)
- GI50 (KM12): > 100 µM (inactive)
- GI50 (SF-295): > 100 µM (inactive)
- GI50 (U-251): > 100 µM (inactive)
- GI50 (COLO 205): > 100 µM (inactive)
- GI50 (TK-10): > 100 µM (inactive)
- GI50 (OVCAR-4): > 100 µM (inactive)
- GI50 (ACHN): > 100 µM (inactive)
- GI50 (K562): > 100 µM (inactive)
- GI50 (PC-3): > 100 µM (inactive)
- GI50 (SNB-75): > 100 µM (inactive)

Compound: CC(O)(C#N)CC(O)(C(F)(F)Cl)C(F)(F)Cl (centres undefined)
- GI50 (RXF 393): > 10 µM (inactive)
- GI50 (M14): > 10 µM (inactive)
- GI50 (DU-145): > 10 µM (inactive)
- GI50 (HOP-92): > 10 µM (inactive)
- GI50 (NCI-H226): > 10 µM (inactive)
- GI50 (SK-MEL-5): > 10 µM (inactive)
- GI50 (OVCAR-8): > 10 µM (inactive)
- GI50 (SK-MEL-28): > 10 µM (inactive)
- GI50 (A498): > 10 µM (inactive)
- GI50 (HCT-116): > 10 µM (inactive)
- GI50 (A549): > 10 µM (inactive)
- GI50 (MDA-N): > 10 µM (inactive)
- GI50 (SN12C): > 10 µM (inactive)
- GI50 (NCI-H23): > 10 µM (inactive)
- GI50 (NCI/ADR-RES): > 10 µM (inactive)
- GI50 (MDA-MB-231): > 10 µM (inactive)
- GI50 (OVCAR-5): > 10 µM (inactive)
- GI50 (IGROV-1): > 10 µM (inactive)
- GI50 (OVCAR-3): > 10 µM (inactive)
- GI50 (SF-268): > 10 µM (inactive)
- GI50 (SNB-19): > 10 µM (inactive)
- GI50 (HT-29): > 10 µM (inactive)
- GI50 (UO-31): > 10 µM (inactive)
- GI50 (SW-620): > 10 µM (inactive)
- GI50 (CAKI-1): > 10 µM (inactive)
- GI50 (HCT-15): > 10 µM
- GI50 (MDA-MB-435): > 10 µM (inactive)
- GI50 (KM12): > 10 µM (inactive)
- GI50 (SF-295): > 10 µM (inactive)
- GI50 (SF-539): > 10 µM (inactive)
- GI50 (U-251): > 10 µM (inactive)
- GI50 (COLO 205): > 10 µM (inactive)
- GI50 (TK-10): > 10 µM (inactive)
- GI50 (OVCAR-4): > 10 µM (inactive)
- GI50 (EKVX): > 10 µM (inactive)
- GI50 (ACHN): > 10 µM (inactive)
- GI50 (PC-3): > 10 µM (inactive)
- GI50 (SNB-75): > 10 µM (inactive)
